Patent publication EP4635500A1, “THERAPEUTIC AGENT FOR BACTERIAL INFECTION” (Sumitomo Pharma Co., Ltd., priority 2022, dated 2024)
Converted amounts (≈) assume the structure as drawn. Like-named read-outs stand apart in the source and are kept apart here.

Test system: Enterobacterales
Test: MIC, broth microdilution, CDC/FDA Antibiotic Resistance Isolate Bank (Example 7, Tables 8, 11, 12)
Format: cell-based
Details: for MIC: read-out: MIC; for MIC50 / MIC90: carbapenemase-producing Enterobacterales; for MIC50: read-out: MIC50; for MIC90: read-out: MIC90

Q: With `NCC[C@H](O)C(=O)N[C@@H]1C[C@H](N)[C@@H](O[C@H]2O[C@H](CN)[C@@H](O)[C@H](O)[C@H]2O)[C@H](O)[C@H]1O[C@H]1O[C@H](CO)[C@@H](O)[C@H](N)[C@H]1O` [Amikacin, amikacin] as the molecule, how does the MIC (Klebsiella pneumoniae, KUB No. 5538, AR Bank# 41) read?
A: The MIC was > 64 µg/mL.

Q: And the MIC (Klebsiella pneumoniae, KUB No. 5540, AR Bank# 43)?
A: Its MIC is 1 µg/mL (≈ 1.71 µM).

Q: And the MIC (Klebsiella pneumoniae, KUB No. 5541, AR Bank# 44)?
A: The MIC was 16 µg/mL (≈ 27.3 µM).

Q: What about the MIC (Klebsiella pneumoniae, KUB No. 5543, AR Bank# 46) of the same molecule?
A: Its MIC is 16 µg/mL (≈ 27.3 µM).

Q: What about the MIC (Klebsiella pneumoniae, KUB No. 5546, AR Bank# 49) of the same molecule?
A: The MIC was > 64 µg/mL.

Q: And the MIC (Klebsiella pneumoniae, KUB No. 5563, AR Bank # 66)?
A: Its MIC is 8 µg/mL (≈ 13.7 µM).

Q: And the MIC (Klebsiella pneumoniae, KUB No. 5565, AR Bank # 68)?
A: Its MIC is 64 µg/mL (≈ 109 µM).

Q: And the MIC (Klebsiella pneumoniae, KUB No. 5572, AR Bank # 75)?
A: Its MIC is > 64 µg/mL.

Q: And the MIC (Klebsiella pneumoniae, KUB No. 5573, AR Bank # 76)?
A: The MIC was 8 µg/mL (≈ 13.7 µM).

Q: What about the MIC (Klebsiella pneumoniae, KUB No. 5576, AR Bank # 79) of the same molecule?
A: Its MIC is > 64 µg/mL.

Q: What about the MIC (Klebsiella pneumoniae, KUB No. 5577, AR Bank # 80) of the same molecule?
A: The MIC was 4 µg/mL (≈ 6.83 µM).

Q: What about the MIC (Klebsiella pneumoniae, KUB No. 5584, AR Bank # 87) of the same molecule?
A: The MIC was 1 µg/mL (≈ 1.71 µM).

Q: And the MIC (Klebsiella pneumoniae, KUB No. 5594, AR Bank # 97)?
A: The MIC was 64 µg/mL (≈ 109 µM).

Q: What about the MIC (Klebsiella pneumoniae, KUB No. 5595, AR Bank # 98) of the same molecule?
A: The MIC was 32 µg/mL (≈ 54.6 µM).

Q: And the MIC (Klebsiella pneumoniae, KUB No. 5603, AR Bank # 106)?
A: Its MIC is > 64 µg/mL.

Q: What about the MIC (Klebsiella pneumoniae, KUB No. 5604, AR Bank # 107) of the same molecule?
A: The MIC was > 64 µg/mL.

Q: What about the MIC (Klebsiella pneumoniae, KUB No. 5606, AR Bank # 109) of the same molecule?
A: The MIC was 8 µg/mL (≈ 13.7 µM).

Q: And the MIC (Klebsiella pneumoniae, KUB No. 5609, AR Bank # 112)?
A: The MIC was 32 µg/mL (≈ 54.6 µM).

Q: What about the MIC (Klebsiella pneumoniae, KUB No. 5610, AR Bank # 113) of the same molecule?
A: Its MIC is 32 µg/mL (≈ 54.6 µM).

Q: And the MIC (Klebsiella pneumoniae, KUB No. 5612, AR Bank # 115)?
A: Its MIC is 0.5 µg/mL (≈ 0.854 µM).

Q: And the MIC (Klebsiella pneumoniae, KUB No. 5614, AR Bank # 117)?
A: The MIC was 32 µg/mL (≈ 54.6 µM).

Q: What about the MIC (Klebsiella pneumoniae, KUB No. 5617, AR Bank # 120) of the same molecule?
A: Its MIC is 32 µg/mL (≈ 54.6 µM).

Q: What about the MIC (Klebsiella pneumoniae, KUB No. 5622, AR Bank # 125) of the same molecule?
A: Its MIC is 32 µg/mL (≈ 54.6 µM).

Q: And the MIC (Klebsiella pneumoniae, KUB No. 5623, AR Bank # 126)?
A: The MIC was 4 µg/mL (≈ 6.83 µM).

Q: What about the MIC (Klebsiella pneumoniae, KUB No. 5626, AR Bank # 129) of the same molecule?
A: The MIC was 32 µg/mL (≈ 54.6 µM).

Q: And the MIC (Klebsiella pneumoniae, KUB No. 5632, AR Bank # 135)?
A: The MIC was 8 µg/mL (≈ 13.7 µM).

Q: What about the MIC (Klebsiella pneumoniae, KUB No. 5635, AR Bank # 138) of the same molecule?
A: Its MIC is > 64 µg/mL.

Q: And the MIC (Klebsiella pneumoniae, KUB No. 5636, AR Bank # 139)?
A: The MIC was > 64 µg/mL.

Q: And the MIC (Klebsiella pneumoniae, KUB No. 5637, AR Bank # 140)?
A: The MIC was > 64 µg/mL.

Q: And the MIC (Klebsiella pneumoniae, KUB No. 5638, AR Bank # 141)?
A: Its MIC is > 64 µg/mL.

Q: And the MIC (Klebsiella pneumoniae, KUB No. 5639, AR Bank # 142)?
A: The MIC was > 64 µg/mL.

Q: What about the MIC (Klebsiella pneumoniae, KUB No. 5640, AR Bank # 143) of the same molecule?
A: Its MIC is > 64 µg/mL.

Q: What about the MIC (Klebsiella pneumoniae, KUB No. 5642, AR Bank # 145) of the same molecule?
A: Its MIC is 16 µg/mL (≈ 27.3 µM).

Q: What about the MIC (Klebsiella pneumoniae, KUB No. 5643, AR Bank # 146) of the same molecule?
A: The MIC was 16 µg/mL (≈ 27.3 µM).

Q: And the MIC (Klebsiella pneumoniae, KUB No. 5645, AR Bank # 148)?
A: Its MIC is > 64 µg/mL.

Q: What about the MIC (Klebsiella pneumoniae, KUB No. 5649, AR Bank # 152) of the same molecule?
A: Its MIC is 32 µg/mL (≈ 54.6 µM).

Q: What about the MIC (Klebsiella pneumoniae, KUB No. 5650, AR Bank # 153) of the same molecule?
A: Its MIC is > 64 µg/mL.

Q: And the MIC (Klebsiella pneumoniae, KUB No. 5655, AR Bank # 158)?
A: The MIC was 2 µg/mL (≈ 3.42 µM).

Q: And the MIC (Klebsiella pneumoniae, KUB No. 5657, AR Bank # 160)?
A: The MIC was 0.5 µg/mL (≈ 0.854 µM).

Q: And the MIC (Klebsiella pneumoniae, KUB No. 5757, AR Bank # 361)?
A: Its MIC is 32 µg/mL (≈ 54.6 µM).

Q: What about the MIC (Klebsiella pneumoniae, KUB No. 5759, AR Bank # 363) of the same molecule?
A: Its MIC is 16 µg/mL (≈ 27.3 µM).

Q: And the MIC (Klebsiella pneumoniae, KUB No. 5760, AR Bank # 364)?
A: Its MIC is 16 µg/mL (≈ 27.3 µM).

Q: And the MIC (Klebsiella pneumoniae, KUB No. 5772, AR Bank # 376)?
A: The MIC was 2 µg/mL (≈ 3.42 µM).

Q: And the MIC (Klebsiella pneumoniae, Klebsiella pneumoniae KUB No. 5784, AR Bank #438)?
A: Its MIC is 32 µg/mL (≈ 54.6 µM).

Q: And the MIC (Klebsiella pneumoniae, Klebsiella pneumoniae KUB No. 5797, AR Bank #453)?
A: Its MIC is 32 µg/mL (≈ 54.6 µM).

Q: And the MIC (Klebsiella pneumoniae, Klebsiella pneumoniae KUB No. 5809, AR Bank #504)?
A: The MIC was 2 µg/mL (≈ 3.42 µM).

Q: And the MIC (Klebsiella pneumoniae, Klebsiella pneumoniae KUB No. 5810, AR Bank #505)?
A: The MIC was 8 µg/mL (≈ 13.7 µM).

Q: What about the MIC (Klebsiella pneumoniae, Klebsiella pneumoniae KUB No. 5811, AR Bank #506) of the same molecule?
A: The MIC was 32 µg/mL (≈ 54.6 µM).

Q: And the MIC (Klebsiella pneumoniae, Klebsiella pneumoniae KUB No. 5812, AR Bank #507)?
A: The MIC was > 64 µg/mL.

Q: What about the MIC (Klebsiella pneumoniae, Klebsiella pneumoniae KUB No. 5827, AR Bank #522) of the same molecule?
A: The MIC was 4 µg/mL (≈ 6.83 µM).

Q: What about the MIC (Klebsiella pneumoniae, Klebsiella pneumoniae KUB No. 5828, AR Bank #523) of the same molecule?
A: Its MIC is 8 µg/mL (≈ 13.7 µM).

Q: What about the MIC (Klebsiella pneumoniae, Klebsiella pneumoniae KUB No. 5829, AR Bank #524) of the same molecule?
A: Its MIC is 16 µg/mL (≈ 27.3 µM).

Q: And the MIC (Klebsiella pneumoniae, Klebsiella pneumoniae KUB No. 5830, AR Bank #525)?
A: The MIC was 32 µg/mL (≈ 54.6 µM).

Q: And the MIC (Kluyvera ascorbata, KUB No. 5641, AR Bank # 144)?
A: The MIC was 4 µg/mL (≈ 6.83 µM).

Q: And the MIC (Morganella morganii, KUB No. 5554, AR Bank# 57)?
A: The MIC was 4 µg/mL (≈ 6.83 µM).

Q: And the MIC (Morganella morganii, KUB No. 5630, AR Bank # 133)?
A: Its MIC is 1 µg/mL (≈ 1.71 µM).

Q: And the MIC (Proteus mirabilis, KUB No. 5556, AR Bank# 59)?
A: Its MIC is 4 µg/mL (≈ 6.83 µM).

Q: What about the MIC (Proteus mirabilis, KUB No. 5652, AR Bank # 155) of the same molecule?
A: The MIC was 1 µg/mL (≈ 1.71 µM).

Q: What about the MIC (Proteus mirabilis, KUB No. 5653, AR Bank # 156) of the same molecule?
A: Its MIC is 4 µg/mL (≈ 6.83 µM).

Q: And the MIC (Proteus mirabilis, KUB No. 5656, AR Bank # 159)?
A: Its MIC is > 64 µg/mL.

Q: What about the MIC (Proteus mirabilis, KUB No. 5773, AR Bank # 377) of the same molecule?
A: Its MIC is 2 µg/mL (≈ 3.42 µM).

Q: And the MIC (Proteus mirabilis, KUB No. 5775, AR Bank # 379)?
A: Its MIC is 8 µg/mL (≈ 13.7 µM).

Q: What about the MIC (Providencia rettgeri, KUB No. 5579, AR Bank # 82) of the same molecule?
A: Its MIC is 1 µg/mL (≈ 1.71 µM).

Q: What about the MIC (Salmonella enterica, Salmonella Senftenberg, KUB No. 5624, AR Bank # 127) of the same molecule?
A: The MIC was > 64 µg/mL.

Q: And the MIC (Serratia marcescens, KUB No. 5588, AR Bank # 91)?
A: The MIC was 1 µg/mL (≈ 1.71 µM).

Q: And the MIC (Serratia marcescens, KUB No. 5596, AR Bank # 99)?
A: Its MIC is 1 µg/mL (≈ 1.71 µM).

Q: What about the MIC (Serratia marcescens, KUB No. 5618, AR Bank # 121) of the same molecule?
A: Its MIC is 2 µg/mL (≈ 3.42 µM).

Q: And the MIC (Serratia marcescens, KUB No. 5619, AR Bank # 122)?
A: The MIC was 1 µg/mL (≈ 1.71 µM).

Q: What about the MIC (Serratia marcescens, KUB No. 5620, AR Bank # 123) of the same molecule?
A: Its MIC is 1 µg/mL (≈ 1.71 µM).

Q: And the MIC (Serratia marcescens, KUB No. 5621, AR Bank # 124)?
A: Its MIC is 2 µg/mL (≈ 3.42 µM).

Q: What about the MIC (Serratia marcescens, KUB No. 5627, AR Bank # 130) of the same molecule?
A: The MIC was 2 µg/mL (≈ 3.42 µM).

Q: And the MIC (Serratia marcescens, KUB No. 5628, AR Bank # 131)?
A: Its MIC is 1 µg/mL (≈ 1.71 µM).

Q: What about the MIC (Serratia marcescens, Serratia marcescens KUB No. 5822, AR Bank #517) of the same molecule?
A: The MIC was 8 µg/mL (≈ 13.7 µM).

Q: And the MIC (Serratia marcescens, Serratia marcescens KUB No. 5825, AR Bank #520)?
A: Its MIC is 64 µg/mL (≈ 109 µM).

Q: And the MIC (Serratia marcescens, Serratia marcescens KUB No. 5826, AR Bank #521)?
A: Its MIC is 2 µg/mL (≈ 3.42 µM).

Q: What about the MIC50 (Metallo-β-lactamase (N = 47)) of the same molecule?
A: The MIC50 was 16 µg/mL (≈ 27.3 µM).

Q: What about the MIC90 (Metallo-β-lactamase (N = 47)) of the same molecule?
A: The MIC90 was > 64 µg/mL.

Q: What about the MIC50 (Serine carbapenemase (N=61)) of the same molecule?
A: The MIC50 was 4 µg/mL (≈ 6.83 µM).

Q: What about the MIC90 (Serine carbapenemase (N=61)) of the same molecule?
A: The MIC90 was 64 µg/mL (≈ 109 µM).
